Results reported in patent US20090036489A1, “Novel Cyclic Aminophenylalkanoic Acid Derivative” (priority 2005, published 2009).

Molecular target: T1, human PPARα (Homo sapiens, UniProt Q07869)
T1 construct: expressed in transfected cells; host or cells: CHO-K1
T1 sequence (Q07869 239-466 limits assumed): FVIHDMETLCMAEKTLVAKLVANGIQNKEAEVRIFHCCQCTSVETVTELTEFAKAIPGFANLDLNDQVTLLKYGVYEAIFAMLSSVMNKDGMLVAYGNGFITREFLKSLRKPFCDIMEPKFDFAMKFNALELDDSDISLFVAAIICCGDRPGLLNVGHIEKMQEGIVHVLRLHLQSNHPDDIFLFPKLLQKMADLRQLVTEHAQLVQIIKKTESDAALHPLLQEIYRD
Test: Activation of human PPARα: GAL4-PPARα LBD luciferase reporter transactivation in CHO-K1 cells
Format: cell-based
Conditions: CHO-K1 cells co-transfected with GAL4 DNA-binding domain/human PPARα ligand-binding domain fusion, firefly luciferase reporter normalized to Renilla; 20 hours with test compound
From the text: Activation of Human Peroxisome Proliferator-Activated Receptor α (PPARα)
CHO-K1 cells cultured in Ham's F12 medium supplemented with 10% fetal calf serum (FCS) were co-transfected with a receptor-expression plasmid engineered to express a fusion protein in which the DNA-binding domain of yeast transcription factor GAL4 is fused to the ligand-binding domain of human PPARα (Biochemistry, 1993, 32, 5598), a reporter plasmid (firefly luciferase reporter plasmid, STRATAGENE) and a Renilla luciferase reporter plasmid as an internal control. The plasmids were co-transfected for 2 hours in serum-free medium using Lipofectamine (Invitrogen). Subsequently, the cells were cultured at 37° C. for 20 hours in Ham's F12 medium supplemented with 10% defatted bovine serum and a test compound. The activity of the two luciferases was then measured and firefly luciferase activity was normalized to the internal control Renilla luciferase activity.

SMILES	EC50
Cc1nc(-c2ccc(Cl)cc2)sc1C(=O)NCC1CCCN(c2ccccc2CC(=O)O)C1 (stereo not shown) [Example 8, 2-[3-[[2-(4-chlorophenyl)-4-methylthiazol-5-yl]carbonylaminomethyl]piperidin-1-yl]phenylacetic Acid]	0.1 nM
Cc1nc(-c2ccc(Cl)cc2)sc1C(=O)NCC1CCCN(c2cccc(CC(=O)O)c2)C1 (stereo not shown) [Example 9, 3-[3-[[2-(4-chlorophenyl)-4-methylthiazol-5-yl]carbonylaminomethyl]piperidin-1-yl]phenylacetic acid]	45 nM
Cc1nc(-c2ccc(Cl)cc2)sc1C(=O)NC1CCCN(c2cccc(CC(=O)O)c2)C1 (stereo not shown) [Example 11, 3-[3-[[2-(4-chlorophenyl)-4-methylthiazol-5-yl]carbonylamino]piperidin-1-yl]phenylacetic acid]	37 nM
Cc1nc(-c2ccc(Cl)cc2)sc1C(=O)NC1CCCN(c2cccc(OC(C)(C)C(=O)O)c2)C1 (stereo not shown) [Example 14, 2-[3-[3-[[2-(4-chlorophenyl)-4-methylthiazol-5-yl]carbonylamino]piperidin-1-yl]phenoxy]-2-methylpropionic acid]	67 nM
